For this test, the system named is Clostridium ljungdahlii. Briefly: Autotrophic production in carbonate buffer on synthesis gas with 0.4 g/l or no L-cysteine HCl (Example 2). It is filed as cell-based. The conditions noted are these: for Acetate (NMR) / Ethanol (NMR) / OD600 / Δp: reactor 2, 0.4 g/L L-Cysteine-HCl. The procedure: For the production, anaerobic carbonate buffer (adjusted with KOH 1.87 g/L) was used.
Identical autotrophic productions were carried out in 500 mL septum bottles with 100 mL of carbonate carried out in a shaking water bath shaker (open Innova 3100 by New Brunswick Scientific) at 100 min^−1. The productions were carried out at 37° C. with manual control of the pH. Once the pH dropped below 5.5, KOH was metered from a stock solution of 187 g/L. In the present experiments the pH in both reactors at points in time of 50.3 h and 73.3 h were taken and corrected by the addition of each 1.87 g/L KOH manually.
The reactors were inoculated with a synthesis gas mixture of 67% H2 and 33% CO2 pressurized with an overpressure of 0.8 bar. To replenish the consumed gas, the gas atmosphere was completely replaced once a day in the headspace of the reactors and again pressured to 0.8 bars.
The reactor 1 contained a concentration of L-cysteine HCl of 0 g/L, and reactor 2 a concentration of L-cysteine HCl of 0.4 g/L.
The reactors started with autotrophic cells at an OD of 0.2. The pre-culture was carried out continuously in a 1 L bottle with 500 ml of complex medium. The complex medium comprised of 1 g/l NH4Cl, 0.1 g/l KCl, 0.2 g/l MgSO4×7 H2O, 0.8 g/l NaCl, 0.1 g/l KH2PO4, 20 mg/l CaCl2×2 H2O, 20 g/l MES, 1 g/l yeast extract, 0.4 g/L L-cysteine HCl, 20 mg/l nitrilotriacetic acid, 10 mg/l MnSO4 H2O x, 8 mg/l (NH4)2Fe(SO4)2×6 H2O, 2 mg/L CoCl2×6 H2O, 2 mg/l ZnSO4×7 H2O, 0.2 mg/l CuCl2×2H2O, 0.2 mg/l Na2MoO4×2 H2O, 0.2 mg/l NiCl2×6 H2O, 0.2 mg/l Na2SeO4, 0.2 mg/l Na2WO4×2 H2O, 20 μg/l d-biotin, 20 μg/L folic acid, 100 μg/l pyridoxine HCl, 50 μg/l thiamine-HCl×H2O. 50 μg/l of riboflavin, 50 μg/l nicotinic acid, 50 μg/l Ca-pantothenate, 1 μg/L of vitamin B12, 50 μg/l p-aminobenzoate, 50 μg/l lipoic acid. The gassing of the culture with synthesis gas (67% H2, 33% CO2) was carried out continuously at a flow rate of 3 l/h over a filter with pore size of 10 microns. The cells were in late log phase of growth at an OD of 0.23 anaerobically centrifuged (4500 rpm, 4300 g, 20° C., 10 min). The supernatant was discarded and the cell pellet resuspended in 10 ml carbonate buffer. The prepared cells were then used to inoculate the actual experiments.
When sampling each 5 ml sample was removed for determination of 0D600, pH and the product range. The determination of the product concentration was performed by quantitative ^1H-NMR spectroscopy. As an internal quantification standard sodium trimethylsilylpropionate (T(M)SP) was used.

Turning to `Cl.N[C@@H](CS)C(=O)O` [L-Cysteine-HCl, L-cysteine hydrochloride], the “concentrations of ethanol and acetate formed” value (0.4 g/L compared with no L-cysteine-HCl, end of 98.8 h reaction time) is “higher”. For the same molecule, the “Acetate (NMR)” value is, setting by setting: (0.0 h) 15 mg/L; (26.0 h) 1714 mg/L; (50.3 h) 2471 mg/L; (98.8 h) 3366 mg/L. The “Ethanol (NMR)” value is, setting by setting: (0.0 h) 5 mg/L; (26.0 h) 21 mg/L; (50.3 h) 91 mg/L; (98.8 h) 84 mg/L. Also, the OD600 reads like this: (0.0 h) 0.18; (26.0 h) 0.18; (50.3 h) 0.19; (74.3 h) 0.18; (98.8 h) 0.18. Further, the Δp by setting is: (26.0 h) 0.6 bar; (50.3 h) 0.5 bar; (74.3 h) 0.4 bar; (98.8 h) 0.2 bar. The gas consumption result (reactor 2 with 0.4 g/L compared with 0 g/L L-cysteine-HCl, over 98.8 h) is “higher”.

Values taken from patent publication US20160177259A1, “[…]” (Evonik Degussa GmbH, priority 2014, published 2016).
